Experiments:
[1] = tested on: HIV-1 laboratory strain, NL4-3; test: MT-4 cytoprotection assay; type: cell-based; conditions: Human immunodeficiency virus 1, NL43, MT4, 96 h; MT-4 cells, four days incubation, WST-1 readout; read-out: MT4 EC50
Method in brief: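 MT-4 cells mock- or batch-infected with NL4-3 (MOI 0.0005) for 2 h, washed, then cultured 4 days with increasing compound concentrations. Viability read by WST-1 tetrazolium reduction: cytoprotection in infected cells, toxicity in mock-infected cells.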

HIV-1NL4-3 = test: P4-MAGI assay; type: cell-based; conditions: Human immunodeficiency virus 1, 24 h, P4 cells, 24 hour incubation, β-galactosidase expression; read-out: P4-MAGI IC50
Method in brief: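 HeLa-derived CD4+ P4 cells carrying an LTR-driven lacZ were infected with HIV-1NL4-3 at MOI 1 with DEAE-Dextran, then compound added in increasing concentrations right after virus; infection reported as Tat-induced β-galactosidase. TC50 measured by WST-1 in mock-infected cells.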

| Compound | EC50 [1] | IC50 (HIV-1NL4-3) |
| --- | --- | --- |
| C=C(C)[C@@H]1CC[C@]2(C(=O)NCCc3cccc(C(=O)NCc4ccc(OCCCn5cncc5C(=O)O)c(C(=O)O)c4)c3)CC[C@]3(C)C(CCC4[C@@]5(C)CC[C@H](O)C(C)(C)C5CC[C@]43C)C12 (stereo partly shown) [Example 246] | 233 nM | 57.3 nM |
| C=C(C)[C@@H]1CC[C@]2(C(=O)NCCc3cccc(S(=O)(=O)NCc4ccc(C(=O)OC)cc4)c3)CC[C@]3(C)C(CCC4[C@@]5(C)CC[C@H](O)C(C)(C)C5CC[C@]43C)C12 (stereo partly shown) [Example 250] | 594 nM | 106 nM |
| C=C(C)[C@@H]1CC[C@]2(C(=O)NCCc3cccc(S(=O)(=O)NCc4ccc(C(=O)O)cc4)c3)CC[C@]3(C)C(CCC4[C@@]5(C)CC[C@H](O)C(C)(C)C5CC[C@]43C)C12 (stereo partly shown) [Example 251] | 258 nM | 68 nM |
| C=C(C)[C@@H]1CC[C@]2(C(=O)NCCc3cccc(C(=O)NCc4ccc(C#N)cn4)c3)CC[C@]3(C)C(CCC4[C@@]5(C)CC[C@H](O)C(C)(C)C5CC[C@]43C)C12 (stereo partly shown) [Example 252] | 14 nM | 25 nM |
| C=C(C)[C@@H]1CC[C@]2(C(=O)NCCc3cccc(C(=O)NCc4ccc(-c5nn[nH]n5)cn4)c3)CC[C@]3(C)C(CCC4[C@@]5(C)CC[C@H](O)C(C)(C)C5CC[C@]43C)C12 (stereo partly shown) [Example 253] | 3.5 nM | 10.8 nM |
| C=C(C)[C@@H]1CC[C@]2(C(=O)NCCc3cccc(-c4nnc(-c5ccc(C(=O)O)cn5)[nH]4)c3)CC[C@]3(C)C(CCC4[C@@]5(C)CC[C@H](O)C(C)(C)C5CC[C@]43C)C12 (stereo partly shown) [Example 254] | 351 nM | 69 nM |
| C=C(C)[C@@H]1CC[C@]2(C(=O)NCCc3cccc(C(=O)NCC(O)CO)c3)CC[C@]3(C)C(CCC4[C@@]5(C)CC[C@H](O)C(C)(C)C5CC[C@]43C)C12 (stereo partly shown) [Example 256] | 204 nM | 50.5 nM |
| C=C(C)[C@@H]1CC[C@]2(C(=O)NCCc3cccc(C(=O)NCC4COC(C(=O)O)CO4)c3)CC[C@]3(C)C(CCC4[C@@]5(C)CC[C@H](O)C(C)(C)C5CC[C@]43C)C12 (stereo partly shown) [Example 257] | 328 nM | 54 nM |
| C=C(C)[C@@H]1CC[C@]2(C(=O)NCCc3cccc(C(=O)NCC4COCC(C(=O)O)O4)c3)CC[C@]3(C)C(CCC4[C@@]5(C)CC[C@H](O)C(C)(C)C5CC[C@]43C)C12 (stereo partly shown) [Example 258] | 984 nM | 112 nM |
| C=C(C)[C@@H]1CC[C@]2(C(=O)NCCc3ccc(F)c(C(=O)NCc4ccc(C(=O)OC)cn4)c3)CC[C@]3(C)C(CCC4[C@@]5(C)CC[C@H](O)C(C)(C)C5CC[C@]43C)C12 (stereo partly shown) [Example 261] | 8.9 nM | 14.5 nM |
| C=C(C)[C@@H]1CC[C@]2(C(=O)NCCc3ccc(F)c(C(=O)NCc4ccc(C(=O)O)cn4)c3)CC[C@]3(C)C(CCC4[C@@]5(C)CC[C@H](O)C(C)(C)C5CC[C@]43C)C12 (stereo partly shown) [Example 262] | 7.2 nM | 11.5 nM |
| CC(=O)[C@@H]1CC[C@]2(C(=O)NCCc3cccc(C(=O)NCc4ccc(C(=O)O)cc4)c3)CC[C@]3(C)C(CCC4[C@@]5(C)CC[C@H](O)C(C)(C)C5CC[C@]43C)C12 (stereo partly shown) [Example 264] | 161 nM | 29.5 nM |
| C=C(CN1CCCC1)[C@@H]1CC[C@]2(C(=O)NCCc3cccc(C(=O)NCc4ccc(C(=O)O)cn4)c3)CC[C@]3(C)C(CCC4[C@@]5(C)CC[C@H](O)C(C)(C)C5CC[C@]43C)C12 (stereo partly shown) [Example 265] | 172 nM | 58 nM |
| C=C(COC)[C@@H]1CC[C@]2(C(=O)NCCc3cccc(C(=O)NCc4ccc(C(=O)O)cn4)c3)CC[C@]3(C)C(CCC4[C@@]5(C)CC[C@H](O)C(C)(C)C5CC[C@]43C)C12 (stereo partly shown) [Example 266] | 24 nM | 8.3 nM |
| C=C(CSCCO)[C@@H]1CC[C@]2(C(=O)NCCc3cccc(C(=O)NCc4ccc(C(=O)O)cn4)c3)CC[C@]3(C)C(CCC4[C@@]5(C)CC[C@H](O)C(C)(C)C5CC[C@]43C)C12 (stereo partly shown) [Example 267] | 46 nM | 17.3 nM |
| C=C(CSCCC(=O)O)[C@@H]1CC[C@]2(C(=O)NCCc3cccc(C(=O)NCc4ccc(C(=O)O)cc4)c3)CC[C@]3(C)C(CCC4[C@@]5(C)CC[C@H](O)C(C)(C)C5CC[C@]43C)C12 (stereo partly shown) [Example 268] | 411 nM | 104 nM |
| C/C(=C/C#N)[C@@H]1CC[C@]2(C(=O)NCCc3cccc(C(=O)NCc4ccc(C(=O)O)cn4)c3)CC[C@]3(C)C(CCC4[C@@]5(C)CC[C@H](O)C(C)(C)C5CC[C@]43C)C12 (stereo partly shown) [Example 269] | 39 nM | 11.4 nM |
| CC(O)(CN1CCCC1)[C@@H]1CC[C@]2(C(=O)NCCc3cccc(C(=O)NCc4ccc(C(=O)O)cn4)c3)CC[C@]3(C)C(CCC4[C@@]5(C)CC[C@H](O)C(C)(C)C5CC[C@]43C)C12 (stereo partly shown) [Example 270] | 441 nM | 100 nM |
| CC1(C)C2CC[C@]3(C)C(CCC4C5[C@H]([C@@](C)(O)CO)CC[C@]5(C(=O)NCCc5cccc(C(=O)NCc6ccc(C(=O)O)cn6)c5)CC[C@]43C)[C@@]2(C)CC[C@@H]1O (stereo partly shown) [Example 271] | 1810 nM | 119 nM |
| C=C(C)[C@@H]1CC[C@]2(C(=O)NCCc3cccc(C(=O)NCc4ccc(C(=O)NCCc5cnc[nH]5)cn4)c3)CC[C@]3(C)C(CCC4[C@@]5(C)CC[C@H](O)C(C)(C)C5CC[C@]43C)C12 (stereo partly shown) [Example 272] | 12.4 nM | 3.1 nM |
| C=C(C)[C@@H]1CC[C@]2(C(=O)NCCc3ccc(C)c(C(=O)NCc4ccc(C(=O)O)cn4)c3)CC[C@]3(C)C(CCC4[C@@]5(C)CC[C@H](O)C(C)(C)C5CC[C@]43C)C12 (stereo partly shown) [Example 273] | 1860 nM | 127 nM |
| C=C(C)[C@@H]1CC[C@]2(C(=O)NCCc3ccc(C)c(C(=O)NCc4ccc(C(=O)O)cc4)c3)CC[C@]3(C)C(CCC4[C@@]5(C)CC[C@H](O)C(C)(C)C5CC[C@]43C)C12 (stereo partly shown) [Example 274] | 4320 nM | 84.5 nM |
| C=C(C)[C@@H]1CC[C@]2(C(=O)NCCc3cccc(C(=O)N[C@@H](C)c4cccc[n+]4[O-])c3)CC[C@]3(C)C(CCC4[C@@]5(C)CC[C@H](O)C(C)(C)C5CC[C@]43C)C12 (stereo partly shown) [Example 275] | 1000 nM | 180 nM |

Reference: patent US20090275583A1, “ANTIVIRAL COMPOUNDS AND USE THEREOF” (Myriad Genetics, Incorporated, priority 2006, published 2009)
